According to PubChem BioAssay AID463211 (Broad Institute, 2010):
The source made the active and inactive calls.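 How the source made its calls: active means loss of HeLa cell viability with AC50 at most tenfold above the top tested dose; inconclusive means flat fit with signal drop between 30% and 70%, or poor fit; inactive means AC50 more than tenfold above top tested dose.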

The compounds below were run on HeLa viability, ATP luminescence (CellTiterGlo), 48 h (assay: HeLa cell cytotoxicity, dose response, cytotoxicity control for LANA inhibitor project, luminescence (AID 463211)).

Compound	AC50
CCCCCCn1c(=O)[nH]c2nc3cc(N)ccc3nc2c1=O	> 35 µM (inactive)
CC1=NCCc2c1[nH]c1cc(O)ccc21	> 35 µM (inactive)
CC(=O)Oc1ccc2c(c1)Oc1cc(OC(C)=O)ccc1C21OC(=O)c2ccccc21	> 35 µM (inactive)
Cc1cc(C)cc(NS(=O)(=O)c2ccc3c(c2)C(C)(C)C(=O)N3C)c1	> 35 µM (inactive)
COc1ccc2c3c(cccc13)C(=O)CC2	22.3 µM
O=C1c2ccccc2-c2onc3ccc(NCCCn4ccnc4)c1c23	32.4 µM
COc1ccc2ccccc2c1C(O)c1nccn1C (centres undefined)	> 35 µM (inactive)
Cc1nn(C)c(C)c1N1C(=O)c2cccc3c(N)ccc(c23)C1=O	> 35 µM (inactive)
O=S(=O)(Nc1cc(Cl)ccc1N1CCOCC1)c1ccccc1Cl	> 35 µM (inactive)
Cc1ccc(Cl)cc1N1CCN(C(=O)C2CCN(S(C)(=O)=O)CC2)CC1	> 35 µM (inactive)
CN(C)/C=C1\C=C2C(=O)c3ccccc3N2C1=O	> 35 µM (inactive)
Cc1cc2nc3c(=O)n(Cc4ccccc4)c(=O)[nH]c3nc2cc1N	> 35 µM (inactive)
CC(=O)Nc1cccc(N)c1	> 35 µM (inactive)
Cc1cc(C)c2nc(C(F)(F)F)nc(NCCCN3CCCC3=O)c2c1	> 35 µM (inactive)
CC(C)CSC1=NSC2=NC(=O)/C(=C\c3coc4ccccc4c3=O)C(=N)N12	> 35 µM (inactive)
CC(C)(C)C1(C)OC(=O)C(=Cc2ccc(OCC(=O)Nc3ccccc3)cc2)C(=O)O1 (centres undefined)	> 35 µM (inactive)
COc1ccc(C2C=C(c3ccc(Br)cc3)Nc3nc(NS(C)(=O)=O)nn32)cc1 (centres undefined)	> 35 µM (inactive)
Cc1nn(C)cc1N1C(=O)c2cccc3c(N)ccc(c23)C1=O	> 35 µM (inactive)
O=C1c2ccccc2-c2onc3ccc(NCc4ccco4)c1c23	28.5 µM
O=C(CCCN1C(=O)c2cccc3cccc(c23)C1=O)N1CCN(c2ccccc2)CC1	> 35 µM (inactive)
O=c1ccc2c(-c3ccccc3)c3ccc(O)cc3oc-2c1	> 35 µM (inactive)
CC1Cc2ccccc2N1C(=O)CSc1ncccn1 (centres undefined)	> 35 µM (inactive)
Cc1n[nH]c(C)c1N1C(=O)c2cccc3c(N4CCCCCC4)ccc(c23)C1=O	> 35 µM (inactive)
COc1cccc2c1C(=O)c1c(O)c3c(c(O)c1C2=O)CC(O)(C(=O)CO)CC3OC1CC(N)C(O)C(C)O1 (centres undefined)	4.4 µM
Cc1cccc(N2C(=O)c3cccc4c(N(C)CCO)ccc(c34)C2=O)c1	> 35 µM (inactive)
O=C1CCN2C=Nc3cccc4ccc1c2c34	8.08 µM
Cn1nc(-c2ccccc2)c2nc3ccccc3nc21	> 35 µM (inactive)
CCCCCCCCCCCCCCCC[n+]1ccc(/C=N/O)cc1	11.9 µM
CC(=O)Nc1ccc(-c2cn3ccsc3n2)cc1	> 35 µM (inactive)
